Results taken from patent publication US20250268903A1, “RXFP1 AGONISTS” (BRISTOL-MYERS SQUIBB COMPANY, priority 2021, published 2025).

These compounds were tested against T1, human RXFP1 (Homo sapiens, UniProt Q9HBX9) (assay: hRXFP1 HEK293 cAMP assay (HTRF)). Conditions: HEK293 cells stably expressing human RXFP1, 30 min at room temperature.
T1 construct: expressed in transfected cells
T1 sequence (Q9HBX9 1-757): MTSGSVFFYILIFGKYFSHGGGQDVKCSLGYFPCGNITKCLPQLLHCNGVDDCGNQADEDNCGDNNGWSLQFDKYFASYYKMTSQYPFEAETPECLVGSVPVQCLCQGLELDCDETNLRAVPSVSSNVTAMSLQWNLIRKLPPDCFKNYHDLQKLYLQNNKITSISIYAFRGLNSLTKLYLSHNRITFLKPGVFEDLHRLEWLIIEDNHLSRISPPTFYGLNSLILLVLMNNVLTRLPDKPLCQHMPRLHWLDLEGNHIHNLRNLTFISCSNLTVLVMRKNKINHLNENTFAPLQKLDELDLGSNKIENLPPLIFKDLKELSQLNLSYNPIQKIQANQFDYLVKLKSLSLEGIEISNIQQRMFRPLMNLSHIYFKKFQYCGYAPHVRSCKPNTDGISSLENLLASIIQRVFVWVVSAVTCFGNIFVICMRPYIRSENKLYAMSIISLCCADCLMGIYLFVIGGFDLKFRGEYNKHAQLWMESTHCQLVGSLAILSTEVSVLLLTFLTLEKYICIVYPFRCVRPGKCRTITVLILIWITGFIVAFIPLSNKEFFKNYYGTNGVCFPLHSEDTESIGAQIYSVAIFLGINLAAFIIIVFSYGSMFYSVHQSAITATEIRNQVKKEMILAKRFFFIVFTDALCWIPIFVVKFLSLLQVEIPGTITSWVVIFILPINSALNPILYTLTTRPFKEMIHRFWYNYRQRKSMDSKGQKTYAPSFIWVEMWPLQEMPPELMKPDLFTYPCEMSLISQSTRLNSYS
Type: cell-based
In short: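 hRXFP1-HEK293 stable line; HBSS + Ca/Mg, 20 mM HEPES, 0.05% BSA, 0.5 mM IBMX; cpd 0.010 nM–50 μM, 2% DMSO; 30 min RT; lysis, HTRF cAMP detection; 4-PL fit.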

SMILES	EC50 [nM]
COc1ccc(C(=O)N2CCCC(CO)C2)cc1C(=O)N[C@H]1[C@@H](C(=O)Nc2ccc(F)c(C(F)(F)F)c2)[C@H]2CC[C@@H]1/C2=C\C1CC1 (stereo partly drawn) [Example 233, (1R,2S,3R,4R,7Z)-7-(cyclopropyl-methylidene)-N-[4-fluoro-3-(trifluoromethyl)phenyl]-3-[5-[3-(hydroxymethyl)piperidine-1-carbonyl]-2-methoxybenzamido} bicyclo[2.2.1] heptane-2-carboxamide]	65.7
COc1ccc(C(=O)N2CCCC(CO)C2)cc1C(=O)N[C@H]1[C@@H](C(=O)Nc2ccc(F)c(C(F)(F)F)c2)[C@H]2CC[C@@H]1/C2=C\C1CC1 (stereo partly drawn) [Example 234, (1R,2S,3R,4R,7Z)-7-(cyclopropyl-methylidene)-N-[4-fluoro-3-(trifluoromethyl)phenyl]-3-{5-[3-(hydroxymethyl)piperidine-1-carbonyl]-2-methoxybenzamido} bicyclo[2.2.1]heptane-2-carboxamide]	64.8
COc1ccc(C(=O)N2CC(C)(C)C2)cc1C(=O)N[C@H]1[C@@H](C(=O)Nc2ccc(F)c(C(F)(F)F)c2)[C@H]2CC[C@@H]1/C2=C\C1CC1 [Example 237]	41.3
COc1ccc(C(=O)NCC(C)(C)C)cc1C(=O)N[C@H]1[C@@H](C(=O)Nc2ccc(F)c(C(F)(F)F)c2)[C@H]2CC[C@@H]1/C2=C\C1CC1 [Example 238, N3-[(1R,2R,3S,4R,7Z)-7-(cyclopropyl-methylidene)-3-{[4-fluoro-3-(trifluoromethyl)phenyl]carbamoyl}bicyclo[2.2.1]heptan-2-yl]-N1-(2,2-dimethylpropyl)-4-methoxybenzene-1,3-dicarboxamide]	14

Further compounds by falling EC50, results first:

EC50 [nM]	SMILES
234	COc1ccc(C(=O)NC(C)(C)C)cc1C(=O)N[C@H]1[C@@H](C(=O)Nc2ccc(F)c(C(F)(F)F)c2)[C@H]2CC[C@@H]1/C2=C\C1CC1 [Example 236, N1-tert-butyl-N3-[(1R,2R,3S,4R,7Z)-7-(cyclopropyl-methylidene)-3-{[4-fluoro-3-(trifluoromethyl)phenyl]carbamoyl}bicyclo[2.2.1]heptan-2-yl]-4-methoxybenzene-1,3-dicarboxamide]
130	COc1ccc(C(=O)N2CCCC(CO)C2)cc1C(=O)N[C@H]1[C@@H](C(=O)Nc2ccc(F)c(C(F)(F)F)c2)[C@H]2CC[C@@H]1/C2=C\C1CC1 (stereo partly drawn) [Example 235, (1R,2S,3R,4R,7Z)-7-(cyclopropylmethyl-idene)-N-[4-fluoro-3-(trifluoromethyl)phenyl]-3-{5-[3-(hydroxymethyl)piperidine-1-carbonyl]-2-methoxybenzamido} bicyclo[2.2.1] heptane-2-carboxamide]
27.8	COc1ccc(C(=O)NC(C)(C)CO)cc1C(=O)N[C@H]1[C@@H](C(=O)Nc2ccc(F)c(C(F)(F)F)c2)[C@H]2CC[C@@H]1/C2=C\C1CC1 [Example 239, N3-[(1R,2R,3S,4R,7Z)-7-(cyclopropyl-methylidene)-3-{[4-fluoro-3-(trifluoromethyl)phenyl]carbamoyl}bicyclo[2.2.1]heptan-2-yl]-N1-(1-hydroxy-2-methylpropan-2-yl)-4-methoxybenzene-1,3-dicarboxamide]
0.95	COc1ccc(C(=O)NCC2(S(C)(=O)=O)CC2)cc1C(=O)N[C@H]1[C@@H](C(=O)Nc2ccc(F)c(C(F)(F)F)c2)[C@H]2CC[C@@H]1/C2=C\C1CC1 [Example 232, N3-[(1R,2R,3S,4R,7Z)-7-(cyclopropyl-methylidene)-3-{[4-fluoro-3-(trifluoromethyl)phenyl]carbamoyl}bicyclo[2.2.1]heptan-2-yl]-NI-[(1-methanesulfonyl-cyclopropyl)methyl]-4-methoxybenzene-1,3-dicarboxamide]
